Data on one compound can be found in patent US20260137700A1, “PHARMACEUTICAL COMBINATION OF PRMT5 INHIBITOR AND DNA DAMAGE-INDUCING SUBSTANCE” (SK Biopharmaceuticals Co., Ltd., priority 2022, published 2026).

The subject of assay [1] is human pancreatic cancer cells Mia PaCa-2. The assay can be described thus: Subcutaneous xenograft mouse model of Mia PaCa-2 pancreatic cancer cells, tumor growth inhibition. Format: in vivo. Particulars: day 24. The method, then: For in vivo efficacy study in a subcutaneous xenograft mouse model of human pancreatic cancer cells Mia PaCa-2, co-administration of compound-87 as a PRMT5 inhibitor according to an example of the present invention and Gemcitabine as an anti-metabolite of a chemotherapeutic agent, was performed. To produce a pancreatic cancer xenograft model, 5 million Mia PaCa-2 cells were injected subcutaneously into the right flank of female nude mice, and tumor growth was monitored.
To evaluate the anticancer effect, mice were divided into six groups when the tumor volume reached approximately 150 mm^3 on average. […] The solvent-treated group (vehicle group) or the compound-87 treatment group was administered orally on a 3-day administration/4-day non-administration schedule, and gemcitabine was administered intraperitoneally twice a week for 24 days (Day 0-Day 23). All mice were euthanized on Day 24, 24 hours after the last administration.

The test system of assay [2] is CTG-1932, a human non-small cell lung cancer patient-derived cell line. The assay can be described thus: Subcutaneous xenograft mouse model of patient-derived CTG-1932 non-small cell lung cancer, tumor growth inhibition. Format: in vivo. Particulars: day 9. The method, then: For in vivo efficacy studies in a subcutaneous xenograft mouse model of CTG-1932, a human non-small cell lung cancer patient-derived cell line, combination therapy of compound-87 as a PRMT5 inhibitor according to one example of the present invention and with paclitaxel as a chemotherapy agent, was performed at Champions Oncology (USA).
To produce a non-small cell lung cancer xenograft model, CTG-1932 tumor stock was grown and harvested from primary mice and then transplanted subcutaneously into the left flank of immunocompromised female mice as a 5×5×5 mm^3 tumor fragment. When the tumor volume reached approximately 150-300 mm^3, the mice were separated into four groups of 10 each. All group consisted of a solvent-treated group (vehicle group), a compound-87 monotherapy group (50 mg/kg, oral administration, 3 days on/4 days off), a paclitaxel monotherapy group (20 mg/kg, intraperitoneal administration once a week), and combination treatment group of compound-87 (50 mg/kg, oral administration, 3 days on/4 days off) and paclitaxel (20 mg/kg, intraperitoneal administration once a week). tumor volume and body weight were measured twice a week.

The next assay concerns DNA damage repair genes. The assay can be described thus: Gene expression analysis in patient-derived xenograft mice (CTG-2534). The conditions noted are these: compound-87 oral, 3-day on/4-day off; tumors taken when solvent group reached 955 mm^3. In kind it is in vivo, mouse. The source says: In order to analyze changes in gene expression by PRMT5 inhibitor treatment according to one example of the present invention, patient-derived cells CTG-2534 were xenografted into mice subcutaneously, and then the mice were divided into groups, when the tumor volume reached 80 to 300 mm^3. The solvent-treated group (vehicle group) or the compound-87 treatment group was orally administered on a 3-day on/4-day off schedule. When the tumor volume of the solvent-treated group reached 955 mm^3, the tumors were separated and performed for gene expression analysis.
FIG. 30 is a heat map showing the change in expression of DNA damage repair genes using Z-score values for Log2FPKM, after compound-87 treatment were performed in patient-derived lung cancer […] cell xenograft mice. In FIG. 30, the solvent-treated group is shown in red (positive value), and the compound-87-treated group is shown in blue (negative value).
For orientation: Xenograft models place foreign cells or tissue in a host animal.

The subject of assay [3] is human small cell lung cancer cells NCI-H1048. Put plainly: Subcutaneous xenograft mouse model of NCI-H1048 small cell lung cancer cells, tumor growth inhibition. In kind it is in vivo. Particulars: day 23. How it is done: For in vivo efficacy study in a subcutaneous xenograft mouse model of human small cell lung cancer cells NCI-H1048, co-administration of compound-87 as a PRMT5 inhibitor according to an example of the present invention and cisplatin as an alkylating agent of a chemotherapeutic agent, was performed. To produce a small cell lung cancer xenograft model, 10 million of NCI-H1048 cells were injected subcutaneously into the right flank of female nude mice, and tumor growth was monitored.
To evaluate the anticancer effect, when the tumor volume reached approximately 162 mm^3 on average, the mice were divided into four groups. The all group included a solvent-treated group (Vehicle 1 (Compound-87)+Vehicle 2 (cisplatin) group), a Compound-87 monotherapy group (50 mg/kg), a cisplatin monotherapy group (4 mg/kg), and combination therapy group of Compound-87 and cisplatin. The Compound-87 treatment group was administered orally on a 3-day administration/4-day non-administration schedule, and cisplatin was administered intraperitoneally once a week for 22 days (Day 1-Day 23). All mice were euthanized on Day 22 (Day 23).

Consider `CN1CCC(Oc2ccc3c(c2)OCCN(C[C@H](O)CN2CCc4ccccc4C2)C3=O)CC1` [Compound-87, 4-[(2R)-3-(3,4-dihydro-1H-isoquinolin-2-yl)-2-hydroxy-propyl]-8-[(1-methyl-4-piperidyl)oxy]-2,3-dihydro-1,4-benzoxazepin-5-one], for which the “tumor growth inhibition rate” value was 67.7% in assay [1] (compound-87 25 mg/kg combined with gemcitabine 60 mg/kg i.p. twice a week); 42.6% in assay [1] (compound-87 25 mg/kg monotherapy, oral, 3 days on/4 off); 77.0% in assay [1] (compound-87 50 mg/kg combined with gemcitabine 60 mg/kg i.p. twice a week); 56.0% in assay [1] (compound-87 50 mg/kg monotherapy, oral, 3 days on/4 off); 62.0% in assay [3] (compound-87 alone, 50 mg/kg oral, 3-day administration/4-day non-administration). Further, the “tumor growth inhibition compared to the solvent-treated group” value is listed as 39% in assay [2] (compound-87 50 mg/kg oral single agent, 3 days on/4 off, not significant) and 89% in assay [2] (compound-87 50 mg/kg oral together with paclitaxel 20 mg/kg i.p. once a week). Further, the “change in expression of DNA damage repair genes (Z-score of Log2FPKM, heat map FIG. 30)” value with DNA damage repair genes is “reduced expression of DNA damage repair genes”. For the same compound, the partial response in assay [3] (compound-87 50 mg/kg oral combined with cisplatin 4 mg/kg i.p., partial response in all mice) is 60.6%.
